Each structure is given as a SMILES string. Some results are limits rather than exact numbers.

Holding throughout (format): cell-based
Assay [1] concerns the target T1, human TLR9 (Homo sapiens, UniProt Q9NR96).
T1 construct: host or cells: HEK-Blue cells
T1 sequence (Q9NR96 26-1032): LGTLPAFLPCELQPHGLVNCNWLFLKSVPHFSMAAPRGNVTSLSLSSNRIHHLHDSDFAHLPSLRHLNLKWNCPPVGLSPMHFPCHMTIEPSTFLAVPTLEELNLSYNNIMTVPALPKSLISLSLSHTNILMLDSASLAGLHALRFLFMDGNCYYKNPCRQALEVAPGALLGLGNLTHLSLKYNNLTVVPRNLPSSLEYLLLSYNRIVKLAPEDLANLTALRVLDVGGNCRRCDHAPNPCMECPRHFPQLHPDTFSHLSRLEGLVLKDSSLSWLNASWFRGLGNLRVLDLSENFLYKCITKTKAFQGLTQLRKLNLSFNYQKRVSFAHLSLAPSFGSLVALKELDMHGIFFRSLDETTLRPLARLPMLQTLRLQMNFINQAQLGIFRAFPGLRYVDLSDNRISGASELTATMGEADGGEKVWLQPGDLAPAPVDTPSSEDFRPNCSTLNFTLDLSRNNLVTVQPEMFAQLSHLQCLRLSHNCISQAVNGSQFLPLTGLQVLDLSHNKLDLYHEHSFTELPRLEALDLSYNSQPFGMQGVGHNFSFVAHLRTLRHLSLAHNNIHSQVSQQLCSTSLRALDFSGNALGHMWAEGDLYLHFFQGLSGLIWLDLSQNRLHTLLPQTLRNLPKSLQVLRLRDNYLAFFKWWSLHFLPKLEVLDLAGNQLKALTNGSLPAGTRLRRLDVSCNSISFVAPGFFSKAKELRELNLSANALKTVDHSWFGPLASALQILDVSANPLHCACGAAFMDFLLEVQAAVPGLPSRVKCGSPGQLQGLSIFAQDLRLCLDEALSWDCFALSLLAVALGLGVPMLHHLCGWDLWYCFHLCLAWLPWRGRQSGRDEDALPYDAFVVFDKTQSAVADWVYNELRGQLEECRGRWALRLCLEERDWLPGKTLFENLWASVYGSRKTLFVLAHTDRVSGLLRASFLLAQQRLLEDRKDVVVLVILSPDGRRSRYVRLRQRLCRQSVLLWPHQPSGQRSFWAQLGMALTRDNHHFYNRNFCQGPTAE
Description: TLR9 inhibition reporter assay (HEK-Blue SEAP). Conditions: cells overexpressing human TLR9, SEAP reporter, stimulated with ODN2006 5 nM, 22 hour incubation. As for the experimental part:
(§1) TLR7/8/9 Inhibition Reporter Assays
(§2) […] (Invivogen) overexpressing human TLR7, TLR8 or TLR9 receptors were used for screening inhibitors of these receptors using an inducible SEAP (secreted embryonic alkaline phosphatase) reporter gene under the control of the IFN-β minimal promoter fused to five NF-κB and AP-1-binding sites. Briefly, cells are seeded into Greiner 384 well plates (15000 cells per well for TLR7, 20,000 for TLR8 and 25,000 for TLR9) and then treated with test compounds in DMSO to yield a final dose response concentration range of 0.05 nM-50 μM. After a 30 minute compound pre-treatment at room temperature, the cells are then stimulated with a TLR7 ligand (gardiquimod at a final concentration of 7.5 μM). TLR8 ligand (R848 at a final concentration of 15.9 μM) or TLR9 ligand (ODN2006 at a final concentration of 5 nM) to activate NF-κB and AP-1 which induce the production of SEAP. After a 22 hour incubation at 37° C., 5% CO2, SEAP levels are determined with the addition of HEK-Blue™ Detection reagent (Invivogen), a cell culture medium that allows for detection of SEAP, according to manufacturer's specifications. The percent inhibition is determined as the % reduction in the HEK-Blue signal present in wells treated with agonist plus DMSO alone compared to wells treated with a known inhibitor.
On the technique in general: Reporter assays use an easily measured gene product as a stand-in for the process of interest.

Assay [2] deals with T2, human TLR7 (Homo sapiens, UniProt Q9NYK1).
T2 construct: host or cells: HEK-Blue cells
T2 sequence (Q9NYK1 27-1049): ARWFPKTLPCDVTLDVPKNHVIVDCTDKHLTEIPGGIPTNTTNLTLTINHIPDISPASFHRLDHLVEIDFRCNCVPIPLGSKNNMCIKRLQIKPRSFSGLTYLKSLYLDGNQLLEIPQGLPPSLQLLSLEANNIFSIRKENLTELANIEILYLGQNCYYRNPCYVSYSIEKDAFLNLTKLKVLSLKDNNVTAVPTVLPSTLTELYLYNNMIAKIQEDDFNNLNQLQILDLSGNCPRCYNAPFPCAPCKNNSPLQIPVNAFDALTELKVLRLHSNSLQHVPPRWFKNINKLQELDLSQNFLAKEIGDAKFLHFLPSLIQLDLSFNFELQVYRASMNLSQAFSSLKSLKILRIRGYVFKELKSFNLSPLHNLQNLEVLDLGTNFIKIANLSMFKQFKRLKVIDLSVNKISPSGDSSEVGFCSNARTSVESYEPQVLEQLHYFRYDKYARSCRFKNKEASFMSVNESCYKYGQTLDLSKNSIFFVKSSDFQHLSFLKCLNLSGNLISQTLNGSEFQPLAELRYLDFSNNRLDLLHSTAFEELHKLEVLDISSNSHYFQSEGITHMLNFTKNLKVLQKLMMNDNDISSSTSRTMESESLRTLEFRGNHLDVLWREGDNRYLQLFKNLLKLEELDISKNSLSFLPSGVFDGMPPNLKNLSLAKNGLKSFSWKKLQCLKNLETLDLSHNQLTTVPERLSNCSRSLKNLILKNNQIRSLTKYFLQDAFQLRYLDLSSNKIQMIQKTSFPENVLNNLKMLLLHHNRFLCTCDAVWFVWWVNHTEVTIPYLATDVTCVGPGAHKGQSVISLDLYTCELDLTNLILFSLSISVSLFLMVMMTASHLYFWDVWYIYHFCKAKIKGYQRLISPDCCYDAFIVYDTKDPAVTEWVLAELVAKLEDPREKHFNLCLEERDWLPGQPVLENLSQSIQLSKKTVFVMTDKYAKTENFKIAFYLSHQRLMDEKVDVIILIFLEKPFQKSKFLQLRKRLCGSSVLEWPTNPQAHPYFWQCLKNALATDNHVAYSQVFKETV
Description: TLR7 inhibition reporter assay (HEK-Blue SEAP). The following applies: cells overexpressing human TLR7, SEAP reporter, stimulated with gardiquimod 7.5 μM, 22 hour incubation. As for the experimental part:
as §1, §2

Assay [3] deals with T3, human TLR8 (Homo sapiens, UniProt Q9NR97).
T3 construct: host or cells: HEK-Blue cells
T3 sequence (Q9NR97 27-1041): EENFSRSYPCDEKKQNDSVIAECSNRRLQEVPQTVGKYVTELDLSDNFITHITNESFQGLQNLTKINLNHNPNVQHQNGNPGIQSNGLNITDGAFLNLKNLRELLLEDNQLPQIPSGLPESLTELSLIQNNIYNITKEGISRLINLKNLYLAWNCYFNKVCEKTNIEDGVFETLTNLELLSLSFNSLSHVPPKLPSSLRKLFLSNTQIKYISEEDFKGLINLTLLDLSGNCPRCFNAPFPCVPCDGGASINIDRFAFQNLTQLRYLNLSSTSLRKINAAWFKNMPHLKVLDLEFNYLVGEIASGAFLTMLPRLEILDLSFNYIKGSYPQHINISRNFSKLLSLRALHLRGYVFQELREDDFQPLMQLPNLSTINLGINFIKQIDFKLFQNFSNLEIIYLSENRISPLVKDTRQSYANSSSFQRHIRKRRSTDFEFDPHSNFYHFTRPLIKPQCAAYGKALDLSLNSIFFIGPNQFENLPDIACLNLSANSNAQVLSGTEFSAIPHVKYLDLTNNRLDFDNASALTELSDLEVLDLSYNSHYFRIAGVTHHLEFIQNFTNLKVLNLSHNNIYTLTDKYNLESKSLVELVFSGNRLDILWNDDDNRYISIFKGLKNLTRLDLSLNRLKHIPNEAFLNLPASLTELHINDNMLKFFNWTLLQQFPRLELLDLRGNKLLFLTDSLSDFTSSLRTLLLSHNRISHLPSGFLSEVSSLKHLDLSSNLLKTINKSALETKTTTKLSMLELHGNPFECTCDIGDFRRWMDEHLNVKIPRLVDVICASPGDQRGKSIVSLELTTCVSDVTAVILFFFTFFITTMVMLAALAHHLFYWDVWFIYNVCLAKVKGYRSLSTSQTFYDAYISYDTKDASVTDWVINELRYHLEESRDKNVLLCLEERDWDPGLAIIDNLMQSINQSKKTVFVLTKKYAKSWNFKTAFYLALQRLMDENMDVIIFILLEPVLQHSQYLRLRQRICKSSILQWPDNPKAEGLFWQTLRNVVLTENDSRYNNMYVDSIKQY
Description: TLR8 inhibition reporter assay (HEK-Blue SEAP). The following applies: cells overexpressing human TLR8, SEAP reporter, stimulated with R848 15.9 μM, 22 hour incubation. As for the experimental part:
as §1, §2

Usually IC50 stands for the concentration that gives 50% inhibition. Low readings indicate higher potency, high ones lower potency. `Cc1cc(-c2[nH]c3cnc(C4CCN(C5CCOC5)CC4)nc3c2C(C)C)cn(C)c1=O` (stereo not drawn) [Example 12, 5-(7-isopropyl-2-(1-(tetrahydrofuran-3-yl)piperidin-4-yl)-5H-pyrrolo[3,2-d]pyrimidin-6-yl)-1,3-dirnethylpyridin-2(1H)-one]: the concentration for half-maximal inhibition (IC50) in assay [1] was 1000 to 50000 nM; in assay [2], under 100 nM; in assay [3], under 100 nM.

For the compound `Cc1c(-c2[nH]c3cnc(C4CCN(C5CCOCC5)CC4)nc3c2C(C)C)cn2ncnc2c1C` [Example 13, 6-(7-isopropyl-2-(1-(tetrahydro-2H-pyran-4-yl)piperidin-4-yl)-5H-pyrrolo[3,2-d]pyrimidin-6-yl)-7,8-dimeihyl-[1,2,4]triazolo[1,5-a]pyridine], the IC50 in assay [1] was 1000 to 50000 nM; in assay [2] it was under 100 nM; in assay [3] it was under 100 nM.

Regarding `COc1cc(-c2[nH]c3cnc(C4CCN(C5COC5)CC4)nc3c2C(C)C)cn2ncnc12` [Example 14, 6-(7-isopropyl-2-(1-(oxetan-3-yl)piperidin-4-yl)-5H-pyrrolo[3,2-d]pyrimidin-6-yl)-8-methoxy-[1,2,4]triazolo[1,5-a]pyridine], the figures for the IC50 in assay [1], in assay [2] and in assay [3] were 1000 to 50000 nM, under 100 nM and under 100 nM, respectively.

On to `COc1cc(-c2[nH]c3cnc(C4CCN(CC(C)(C)O)CC4)nc3c2C(C)C)cn2ncnc12` [Example 15, 1-(4-(7-isopropyl-6-(8-methoxy-[1,2,4]triazolo[1,5-a]pyridin-6-yl)-5H-pyrrolo[3,2-d]pyrimidin-2-yl)piperidin-1-yl)-2-methylpropan-2-ol], for which the figures for the IC50 in assay [1], in assay [2] and in assay [3] were 1000 to 50000 nM, under 100 nM and under 100 nM, respectively.

For `COc1ccc(-c2[nH]c3cnc(C4CCNCC4)nc3c2C(C)C)cc1OC` [Example 17, 6-(3,4-dimethoxyphenyl)-7-isopropyl-2-(piperidin-4-yl)-5H-pyrrolo[3,2-d]pyrimidine], the figures for the half-maximal inhibitory concentration (IC50) in assay [1], in assay [2] and in assay [3] were 100 to 1000 nM, under 100 nM and under 100 nM, respectively.

In the case of `COc1ccc(-c2[nH]c3cnc(C4CCN(C(=O)CN(C)C)CC4)nc3c2C(C)C)cc1OC` [Example 18, 1-(4-(6-(3,4-dimethoxyphenyl)-7-isopropyl-5H-pyrrolo[3,2-d]pyrimidin-2-yl)piperidin-1-yl)-2-(dimethylanino)ethan-1-one], the IC50 in assay [1] is 100 to 1000 nM; in assay [2] it was under 100 nM; in assay [3], 100 to 1000 nM.

`Cc1c(-c2[nH]c3cnc(C4CCN(C5COC5)CC4)nc3c2C(C)C)cn2ncnc2c1C` [Example 19, 6-(7-isopropyl-2-(1-(oxetan-3-yl)piperidin-4-yl)-5H-pyrrolo[3,2-d]pyrimidin-6-yl)-7,8-dimethyl-[1,2,4]triazolo[1,5-a]pyridine]: the IC50 was 1000 to 50000 nM in assay [1], under 100 nM in assay [2] and under 100 nM in assay [3].

Regarding `Cc1cc(-c2[nH]c3cnc(C4CCN(CC(C)(C)O)CC4)nc3c2C(C)C)cn2ncnc12` [Example 20, 1-(4-(7-isopropyl-6-(8-methyl-[1,2,4]triazolo[1,5-a]pyridin-6-yl)-5H-pyrrolo[3,2-d]pyrimidin-2-yl)piperidin-1-yl)-2-methylpropan-2-ol], the IC50 in assay [1] is 1000 to 50000 nM; in assay [2] it was under 100 nM; in assay [3], under 100 nM.

In the case of `Cc1cc(-c2[nH]c3cnc(C4CCN(C5CCOCC5)CC4)nc3c2C(C)C)cn(C)c1=O` [Example 21, 5-(7-isopropyl-2-(1-(tetrahydro-2H-pyran-4-yl)piperidin-4-yl)-5H-pyrrolo[3,2-d]pyrimidin-6-yl)-1,3-dimethylpyridin-2(1H)-one], the values for the IC50 in assay [1], in assay [2] and in assay [3] were 100 to 1000 nM, under 100 nM and under 100 nM, respectively.

For `COc1ccc(-c2[nH]c3cnc(C4CCN(C5CCN(C(C)C)CC5)CC4)nc3c2C(C)C)cc1OC` [Example 22, 6-(3,4-dimedioxyphenyl)-7-isopropyl-2-(1′-isopropyl-[1,4′-bipiperidin]-4-yl)-5H-pyrrolo[3,2-d]pyrimidine], the half-maximal inhibitory concentration (IC50) was 100 to 1000 nM in assay [1], under 100 nM in assay [2] and under 100 nM in assay [3].

As to `CCc1c(-c2ccnc(C)c2)[nH]c2cnc(C3CCN(C4CCN(C(C)C)CC4)CC3)nc12` [Example 23, 7-ethyl-2-(1′-isopropyl-[1,4′-bipiperidin]-4-yl)-6-(2-methylpyridin-4-yl)-5H-pyrrolo[3,2-d]pyrimidine], the IC50 in assay [1] was 100 to 1000 nM; in assay [2], 100 to 1000 nM; in assay [3] it was under 100 nM.

These data come from patent US11299501B2 (BRISTOL-MYERS SQUIBB COMPANY, priority 2017, dated 2022).
